Assay results from paper PMC2810561 (Journal of the American Chemical Society, 2009).

Tested on: T84 human intestinal cells
Type: cell-based

Substance: cholera toxin
- secretory response (short-circuit current) to cholera toxin: a pronounced secretory response was observed
